We go through three molecules from US20110136666A1, “CHEMICAL COMPOUNDS” (SYNGENTA CROP PROTECTION, INC., priority 2008, published 2011).

SMILES strings stand for the structures.

The first assay relates to Setaria faberi (SETFA). Description: Pre-emergence biological efficacy, glasshouse pot test. It is filed as in vivo. As to conditions: 312 h, 1000 g/ha, after 13 days, 100=total damage, 0=no damage, read-out: Percentage damage caused to weed species SETFA. The essentials: (§1)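 Pots sown with weed seeds, sprayed 1 day after sowing with test compound in acetone/water (50:50) plus 0.5% Tween 20 at 250 or 1000 g/ha. Plants grown in glasshouse at 24/16° C day/night, 14 h light, 65% humidity, watered twice daily. Damage scored visually after 13 days (0 = none, 100 = total).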
With `CCOC(=O)c1nc(-c2ccc(Cl)s2)nc(N)c1Cl` [Compound 3-2, 4-amino-5-chloro-2-(5-chlorothiophen-2-yl)-6-ethoxycarbonyl-pyrimidine], the pest or weed control at 1000 g/ha was 0%.
Turning to `CCOC(=O)c1nc(-c2ccc(C(F)(F)F)cn2)nc(N)c1Cl` [Compound 3-150, 4-amino-5-chloro-6-ethoxycarbonyl-2-(5-trifluoromethylpyridin-2-yl)-pyrimidine], the pest or weed control at 1000 g/ha came out at 0%.
Take `O=C(O)c1nc(-c2ccccn2)nc(Cl)c1Cl` [Compound 61-149, 4,5-dichloro-2-pyridin-2-ylpyrimidine-6-carboxylic acid]: the pest or weed control at 1000 g/ha came to 0%.

A further assay has as its system Echinochloa crus-galli (ECHCG). The description is as above. Format: in vivo. As to conditions: 312 h, 1000 g/ha, after 13 days, 100=total damage, 0=no damage, read-out: Percentage damage caused to weed species ECHCG. An outline of the steps:
as §1
For `CCOC(=O)c1nc(-c2ccc(Cl)s2)nc(N)c1Cl` [Compound 3-2, 4-amino-5-chloro-2-(5-chlorothiophen-2-yl)-6-ethoxycarbonyl-pyrimidine], the pest or weed control at 1000 g/ha stood at 0%.
For the molecule `CCOC(=O)c1nc(-c2ccc(C(F)(F)F)cn2)nc(N)c1Cl` [Compound 3-150, 4-amino-5-chloro-6-ethoxycarbonyl-2-(5-trifluoromethylpyridin-2-yl)-pyrimidine], the pest or weed control at 1000 g/ha turned out to be 0%.
With `O=C(O)c1nc(-c2ccccn2)nc(Cl)c1Cl` [Compound 61-149, 4,5-dichloro-2-pyridin-2-ylpyrimidine-6-carboxylic acid], the pest or weed control at 1000 g/ha was determined as 0%.

The test system of a further assay is Alopecurus myosuroides (ALOMY). The assay is described as above. As to conditions: 312 h, 1000 g/ha, after 13 days, 100=total damage, 0=no damage, read-out: Percentage damage caused to weed species ALOMY. It is filed as in vivo. An outline of the steps:
as §1
On to `CCOC(=O)c1nc(-c2ccc(Cl)s2)nc(N)c1Cl` [Compound 3-2, 4-amino-5-chloro-2-(5-chlorothiophen-2-yl)-6-ethoxycarbonyl-pyrimidine], for which the pest or weed control at 1000 g/ha amounted to 0%.
Still for that read-out and setting: as for `CCOC(=O)c1nc(-c2ccc(C(F)(F)F)cn2)nc(N)c1Cl` [Compound 3-150, 4-amino-5-chloro-6-ethoxycarbonyl-2-(5-trifluoromethylpyridin-2-yl)-pyrimidine], the figure is 0%.
The same measure, in the same setting: the value for `O=C(O)c1nc(-c2ccccn2)nc(Cl)c1Cl` [Compound 61-149, 4,5-dichloro-2-pyridin-2-ylpyrimidine-6-carboxylic acid] was 0%.

The test system of a further assay is Amaranthus retroflexus (AMARE). The description is as above. It is filed as in vivo. As to conditions: 312 h, 1000 g/ha, after 13 days, 100=total damage, 0=no damage, read-out: Percentage damage caused to weed species AMARE. An outline of the steps:
as §1
Turning to `CCOC(=O)c1nc(-c2ccc(Cl)s2)nc(N)c1Cl` [Compound 3-2, 4-amino-5-chloro-2-(5-chlorothiophen-2-yl)-6-ethoxycarbonyl-pyrimidine], the pest or weed control at 1000 g/ha is 30%.
Consider `CCOC(=O)c1nc(-c2ccc(C(F)(F)F)cn2)nc(N)c1Cl` [Compound 3-150, 4-amino-5-chloro-6-ethoxycarbonyl-2-(5-trifluoromethylpyridin-2-yl)-pyrimidine], for which the pest or weed control at 1000 g/ha was 0%.
With `O=C(O)c1nc(-c2ccccn2)nc(Cl)c1Cl` [Compound 61-149, 4,5-dichloro-2-pyridin-2-ylpyrimidine-6-carboxylic acid], the pest or weed control at 1000 g/ha was 0%.

Another assay concerns Ipomea hederaceae (IPOHE). Described as above. Format: in vivo. As to conditions: Ipomoea hederacea, 312 h, 1000 g/ha, after 13 days, 100=total damage, 0=no damage, read-out: Percentage damage caused to weed species IPOHE. An outline of the steps: as §1
Take `CCOC(=O)c1nc(-c2ccc(Cl)s2)nc(N)c1Cl` [Compound 3-2, 4-amino-5-chloro-2-(5-chlorothiophen-2-yl)-6-ethoxycarbonyl-pyrimidine]: the pest or weed control at 1000 g/ha worked out at 0%.
Still for that read-out and setting: the value for `CCOC(=O)c1nc(-c2ccc(C(F)(F)F)cn2)nc(N)c1Cl` [Compound 3-150, 4-amino-5-chloro-6-ethoxycarbonyl-2-(5-trifluoromethylpyridin-2-yl)-pyrimidine] was 0%; that for `O=C(O)c1nc(-c2ccccn2)nc(Cl)c1Cl` [Compound 61-149, 4,5-dichloro-2-pyridin-2-ylpyrimidine-6-carboxylic acid] was 0%.

For a further assay, the system named is Solanum nigrum (SOLNI). The assay is described as above. Format: in vivo. As to conditions: 312 h, 1000 g/ha, after 13 days, 100=total damage, 0=no damage, read-out: Percentage damage caused to weed species SOLNI. The essentials: as §1
On to `CCOC(=O)c1nc(-c2ccc(Cl)s2)nc(N)c1Cl` [Compound 3-2, 4-amino-5-chloro-2-(5-chlorothiophen-2-yl)-6-ethoxycarbonyl-pyrimidine], for which the pest or weed control at 1000 g/ha was found to be 0%.
The same measure, in the same setting: as for `CCOC(=O)c1nc(-c2ccc(C(F)(F)F)cn2)nc(N)c1Cl` [Compound 3-150, 4-amino-5-chloro-6-ethoxycarbonyl-2-(5-trifluoromethylpyridin-2-yl)-pyrimidine], the figure is 0%; as for `O=C(O)c1nc(-c2ccccn2)nc(Cl)c1Cl` [Compound 61-149, 4,5-dichloro-2-pyridin-2-ylpyrimidine-6-carboxylic acid], 0%.

The subject of a further assay is Setaria faberi (SETFA). The assay can be described thus: Post-emergence biological efficacy, glasshouse pot test. Format: in vivo. As to conditions: 312 h, 1000 g/ha, after 13 days, 100=total damage, 0=no damage, read-out: Percentage damage caused to weed species SETFA. An outline of the steps:
(§2)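 Species sown in soil and grown 8 days in glasshouse (24/16 °C day/night, 14 h light, 65% humidity), then sprayed with compound in acetone/water (50:50) with 0.5% Tween 20 at 250 or 1000 g/ha. Damage scored visually after 13 days (0 = none, 100 = total).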
With `CCOC(=O)c1nc(-c2ccc(Cl)s2)nc(N)c1Cl` [Compound 3-2, 4-amino-5-chloro-2-(5-chlorothiophen-2-yl)-6-ethoxycarbonyl-pyrimidine], the pest or weed control at 1000 g/ha worked out at 0%.
Still for that read-out and setting: as for `CCOC(=O)c1nc(-c2ccc(C(F)(F)F)cn2)nc(N)c1Cl` [Compound 3-150, 4-amino-5-chloro-6-ethoxycarbonyl-2-(5-trifluoromethylpyridin-2-yl)-pyrimidine], the figure is 0%.
Same read-out and setting: as for `O=C(O)c1nc(-c2ccccn2)nc(Cl)c1Cl` [Compound 61-149, 4,5-dichloro-2-pyridin-2-ylpyrimidine-6-carboxylic acid], the figure is 0%.

A further assay relates to Echinochloa crus-galli (ECHCG). The description is as above. Format: in vivo. As to conditions: 312 h, 1000 g/ha, after 13 days, 100=total damage, 0=no damage, read-out: Percentage damage caused to weed species ECHCG. An outline of the steps:
as §2
As for `CCOC(=O)c1nc(-c2ccc(Cl)s2)nc(N)c1Cl` [Compound 3-2, 4-amino-5-chloro-2-(5-chlorothiophen-2-yl)-6-ethoxycarbonyl-pyrimidine], the pest or weed control at 1000 g/ha was 0%.
Still for that read-out and setting: the value for `CCOC(=O)c1nc(-c2ccc(C(F)(F)F)cn2)nc(N)c1Cl` [Compound 3-150, 4-amino-5-chloro-6-ethoxycarbonyl-2-(5-trifluoromethylpyridin-2-yl)-pyrimidine] was 0%; that for `O=C(O)c1nc(-c2ccccn2)nc(Cl)c1Cl` [Compound 61-149, 4,5-dichloro-2-pyridin-2-ylpyrimidine-6-carboxylic acid] was 0%.

The test system of the next assay is Alopecurus myosuroides (ALOMY). Described as above. As to conditions: 312 h, 1000 g/ha, after 13 days, 100=total damage, 0=no damage, read-out: Percentage damage caused to weed species ALOMY. It is filed as in vivo. The essentials:
as §2
With `CCOC(=O)c1nc(-c2ccc(Cl)s2)nc(N)c1Cl` [Compound 3-2, 4-amino-5-chloro-2-(5-chlorothiophen-2-yl)-6-ethoxycarbonyl-pyrimidine], the pest or weed control at 1000 g/ha amounted to 0%.
Consider `CCOC(=O)c1nc(-c2ccc(C(F)(F)F)cn2)nc(N)c1Cl` [Compound 3-150, 4-amino-5-chloro-6-ethoxycarbonyl-2-(5-trifluoromethylpyridin-2-yl)-pyrimidine], for which the pest or weed control at 1000 g/ha came to 0%.
For the molecule `O=C(O)c1nc(-c2ccccn2)nc(Cl)c1Cl` [Compound 61-149, 4,5-dichloro-2-pyridin-2-ylpyrimidine-6-carboxylic acid], the pest or weed control at 1000 g/ha is 0%.

Another assay deals with Amaranthus retroflexus (AMARE). Described as above. Format: in vivo. As to conditions: 312 h, 1000 g/ha, after 13 days, 100=total damage, 0=no damage, read-out: Percentage damage caused to weed species AMARE. The essentials:
as §2
With `CCOC(=O)c1nc(-c2ccc(Cl)s2)nc(N)c1Cl` [Compound 3-2, 4-amino-5-chloro-2-(5-chlorothiophen-2-yl)-6-ethoxycarbonyl-pyrimidine], the pest or weed control at 1000 g/ha stood at 80%.
Still for that read-out and setting: the value for `CCOC(=O)c1nc(-c2ccc(C(F)(F)F)cn2)nc(N)c1Cl` [Compound 3-150, 4-amino-5-chloro-6-ethoxycarbonyl-2-(5-trifluoromethylpyridin-2-yl)-pyrimidine] was 0%.
On the same count and under the same terms, as for `O=C(O)c1nc(-c2ccccn2)nc(Cl)c1Cl` [Compound 61-149, 4,5-dichloro-2-pyridin-2-ylpyrimidine-6-carboxylic acid], the figure is 0%.

A further assay deals with Ipomea hederaceae (IPOHE). Described as above. It is filed as in vivo. As to conditions: Ipomoea hederacea, 312 h, 1000 g/ha, after 13 days, 100=total damage, 0=no damage, read-out: Percentage damage caused to weed species IPONE. An outline of the steps: as §2
In the case of `CCOC(=O)c1nc(-c2ccc(Cl)s2)nc(N)c1Cl` [Compound 3-2, 4-amino-5-chloro-2-(5-chlorothiophen-2-yl)-6-ethoxycarbonyl-pyrimidine], the pest or weed control at 1000 g/ha was determined as 50%.
`CCOC(=O)c1nc(-c2ccc(C(F)(F)F)cn2)nc(N)c1Cl` [Compound 3-150, 4-amino-5-chloro-6-ethoxycarbonyl-2-(5-trifluoromethylpyridin-2-yl)-pyrimidine]: the pest or weed control at 1000 g/ha amounted to 0%.
The same measure, in the same setting: the value for `O=C(O)c1nc(-c2ccccn2)nc(Cl)c1Cl` [Compound 61-149, 4,5-dichloro-2-pyridin-2-ylpyrimidine-6-carboxylic acid] was 0%.

The next assay relates to Solanum nigrum (SOLNI). The assay is described as above. Format: in vivo. As to conditions: 312 h, 1000 g/ha, after 13 days, 100=total damage, 0=no damage, read-out: Percentage damage caused to weed species SOLNI. An outline of the steps:
as §2
Consider `CCOC(=O)c1nc(-c2ccc(Cl)s2)nc(N)c1Cl` [Compound 3-2, 4-amino-5-chloro-2-(5-chlorothiophen-2-yl)-6-ethoxycarbonyl-pyrimidine], for which the pest or weed control at 1000 g/ha worked out at 70%.
On to `CCOC(=O)c1nc(-c2ccc(C(F)(F)F)cn2)nc(N)c1Cl` [Compound 3-150, 4-amino-5-chloro-6-ethoxycarbonyl-2-(5-trifluoromethylpyridin-2-yl)-pyrimidine], for which the pest or weed control at 1000 g/ha is 0%.
On the same count and under the same terms, the value for `O=C(O)c1nc(-c2ccccn2)nc(Cl)c1Cl` [Compound 61-149, 4,5-dichloro-2-pyridin-2-ylpyrimidine-6-carboxylic acid] was 40%.
